These results are taken from patent US20230310352A1, “NOVEL COMPOSITIONS AND METHODS FOR THE TREATMENT OF LUNG FIBROSIS” (LAURENT PHARMACEUTICALS INC., priority 2020, published 2023).

The subject of assay [1] is bleomycin-induced lung fibrosis. Kind of assay: Intratracheal bleomycin mouse model of pulmonary fibrosis (21-day model). The assay is classed as in vivo, C57BL/6N mice. The conditions noted are these: Day 21; oral once daily for 14 days; fenretinide 10 mg/kg (as LAU-7b SDI), pirfenidone 100 mg/kg. As to the method: Oral administration of a solid amorphous dispersion formulation of fenretinide (LAU-7b SDI) was evaluated in treating and/or reducing pulmonary fibrosis in mouse model of lung fibrosis induced via a single intratracheal administration of bleomycin followed by vehicle, fenretinide (LAU-7b SDI) or pirfenidone oral treatment for 21 days. The LAU-7b SDI formulation was obtained by spray drying and contains fenretinide in amorphous form in a solid dispersion comprising a matrix polymer, based on the following formula: 40% fenretinide, 59.6% povidone (KOLLIDON® 30), 0.24% butylated hydroxyanisole (BHA) and 0.16% butylated hydroxytoluene (BHT).
Male C57BL/6N mice from Charles River Laboratories, 10-12 weeks of age, weighing around 20-25 g, at the time of their enrolment, received 50 μL of bleomycin sulfate (2.0 mg/kg) by a single intratracheal instillation on Day 1 of the study. The Sham group received an equivalent volume of 0.9% saline. On Day 7 post-bleomycin instillation the animals were randomized in groups of 8 animals based on their body weight loss and Penh value. Oral dosing by gavage (10 mL/kg) with the vehicle (sham and BLM Control groups), LAU-7b SDI (fenretinide at 5 mg/kg and 10 mg/kg dose), and the reference compound (pirfenidone 100 mg/kg) were initiated once daily starting from Day 7 to Day 21. Two hours following the last dose on Day 21 all the mice were sacrificed, the lungs of each mouse were harvested, flushed with 0.9% NaCl and inflated with 10% neutral buffered formalin solution. After embedding and mounting of the lung tissue (transversal slices of 5 μm thickness), the histology slides were stained with hematoxylin/eosin for the Ashcroft score evaluation by a treatment-blinded pathologist, and with Sirius red staining for automated fibrosis quantification (Biocellvia, France).
As in Example 4, the key endpoints evaluated in this study were the Ashcroft score, pulmonary foci and collagen content obtained by histological assessment of the lung tissue at the end of the study. Statistical analysis was made on normally distributed data by one-way ANOVA followed by multiple comparisons (Fisher's LSD post hoc test) to assess the difference between the groups, using Graph Pad Prism Software version 8.0 (San Diego, CA, USA). Differences were considered statistically significant when P values were p<0.05 (*), or p<0.01 (**) or p<0.001 (***). The Ashcroft score was assessed in the lung tissue by treatment-blinded pathologist on the H&E stained histology slides (2 cross sections/animal) and using the modified Ashcroft scale. Briefly, each lung section was scanned at a magnification of ×100 (H&E staining), and graded from 0 (normal lung) to 8 (total fibrotic obliteration of the field). The mean value of the grades obtained for each of the two sections was used as the Ashcroft score.
Pulmonary foci (fibrotic tissue) and lung collagen content were quantified in the Sirius red stained lung tissue histology sections by high resolution, automated digital image analysis (Biocellvia, France) on Day 21 after lung fibrosis induction by bleomycin (BLM) instillation and following a 14-day oral gavage treatment with LAU-7b SDI (fenretinide, two doses), pirfenidone (reference drug) or vehicle only. Full field analysis of 2 lung sections per animal was conducted and the results were expressed as a mean percentage of total surface. This test is considered highly reliable, offering reproducible and observer-independent assessment of quantitative analysis of fibrosis.

Assay [2] shares this test system. Kind of assay: Intratracheal bleomycin mouse model of pulmonary fibrosis (28-day model). In kind it is in vivo, C57BL/6N mice. The conditions noted are these: Day 28; oral once daily Day 7 to Day 28; fenretinide 10 mg/kg (as LAU-7b SDI), pirfenidone 100 mg/kg. The text has this:
Oral administration of a solid, amorphous dispersion formulation of fenretinide (LAU-7b SDI) was provided as a treatment for reduction of pulmonary fibrosis, in a mouse model of lung fibrosis induced via a single intratracheal administration of bleomycin, for 21 days. The LAU-7b SDI formulation was obtained by spray drying and contains fenretinide in amorphous form in a solid dispersion comprising a matrix polymer, based on the following formula: 40% fenretinide, 59.6% povidone (KOLLIDON® 30), 0.24% butylated hydroxyanisole (BHA) and 0.16% butylated hydroxytoluene (BHT).
Male C57BL/6N mice from Charles River Laboratories, 10-12 weeks of age, weighing around 20-25 g, at the time of their enrolment, received 50 μL of bleomycin sulfate (2.0 mg/kg) by a single intratracheal instillation on Day 1 of the study to induce lung fibrosis. The sham group received an equivalent volume of 0.9% saline. On Day 7 postbleomycin instillation, the animals were randomized in groups of animals based on their body weight loss and enhanced pause airway resistance estimate (PenH value), while the sham group had 6 mice. Oral dosing by gavage (10 mL/kg) with the vehicle (sham and BLM control groups), the test articles (fenretinide 10 mg/kg), and the reference compound (pirfenidone 100 mg/kg) were administered once daily starting from Day 7 to Day 28. Two hours following the last dose on Day 28, all mice were sacrificed, the lungs of each mouse harvested, flushed with 0.9% NaCl and inflated with 10% neutral buffered formalin solution. After embedding and mounting of the lung tissue (transversal slices of 5 μm thickness), the histology slides were stained with hematoxylin/eosin for the Ashcroft score evaluation by a treatment-blinded pathologist and with Sirius red staining for automated fibrosis quantification (Biocelvia, France).
The key endpoints evaluated in this study were Ashcroft score, pulmonary foci and collagen content obtained by histological assessment of the lung tissue at the end of the study. Statistical analysis was made on normally distributed data by one-way ANOVA followed by multiple comparisons (Fisher's LSD post hoc test) to assess the difference between the groups, using Graph Pad Prism Software version 8.0 (San Diego, CA, USA). Differences were considered statistically significant when P values were p<0.05 (*), or p<0.01 (**) or p<0.001 (***).
Ashcroft scale for the evaluation of bleomycin-induced lung fibrosis is the analysis of stained histological samples by visual assessment. The Ashcroft score was assessed in lung tissue collected on Day 28 by treatment-blinded pathologist on H&E stained lung tissue histology slides (3 cross sections/animal) and using the modified Ashcroft scale. Briefly, each lung section was scanned at a magnification of x100 (H&E staining), read by a blinded examiner, and graded from 0 (normal lung) to 8 (total fibrotic obliteration of the field). Criteria for grading lung fibrosis in Ashcroft scale are as follows: Grade 0=normal lung; Grade 1=minimal fibrous thickening of alveolar or bronchiolar walls; Grade 3=moderate thickening of walls without obvious damage to lung architecture; Grade 5=increased fibrosis with definitive damage to lung structure and formation of fibrous bands or small fibrous masses; Grade 7=severe distortion of structure and large fibrous area; Grade 8=total fibrous obliteration of lung fields. The mean value of the grades obtained for each of the three sections was used as the Ashcroft score. Ashcroft score, using the modified scale, is a reliable and reproducible method of visual quantification of bleomycin induced lung fibrosis in H&E stained histological lung sections based on description of the general morphology of alveolar septa and lung structure. […]

In the case of `Cc1ccc(=O)n(-c2ccccc2)c1` [pirfenidone], in assay [1], the “Ashcroft score vs BLM control” value is “reduced significantly”; the “percentage of collagen content, automated Sirius red analysis, vs BLM control” value was “did not induce statistically significant reduction”; the “percentage of pulmonary foci, automated Sirius red analysis, vs BLM control” value is reported as “did not induce statistically significant reduction”. In assay [2], the “Ashcroft score vs BLM control” value is given as “did not induce significant improvement”; the “percentage of collagen content in lung tissue, automated Sirius red analysis, vs BLM control” value is on record as “significantly reduced”; the “percentage of pulmonary foci (fibrotic tissue), automated Sirius red analysis, vs BLM control” value is given as “nonsignificant effect”.
